Reference: PubChem BioAssay (NCI)
Several values for one entry are separate records, joined by “and”; a condition that tells them apart may be missing. Equal entries are not always repeated.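 Dose response: 5 concentrations. Exposure: 48 h. Format: 96-well plates. Endpoint: linear interpolation; highest concentration if not reached. GI50 is the concentration that inhibits growth by half. Definition used: TGI = concentration required for complete inhibition of growth.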

Legend:
Test in all cases: NCI anticancer screen, dose series, 48 h
[1] = tested on: MDA-N
[2] = tested on: TK-10 renal
[3] = tested on: SN12C renal
[4] = tested on: MDA-MB-231 breast
[5] = tested on: OVCAR-3 ovarian
[6] = tested on: PC-3 prostate
[7] = tested on: HCT-116 colon
[8] = tested on: MDA-MB-435
[9] = tested on: A498 renal
[10] = tested on: KM12 colon
[11] = tested on: RXF 393 renal
[12] = tested on: NCI-H23 lung
[13] = tested on: SW-620 colon
[14] = tested on: OVCAR-4 ovarian
[15] = tested on: CAKI-1 renal
[16] = tested on: ACHN renal
[17] = tested on: SNB-19 CNS
[18] = tested on: IGROV1 ovarian
[19] = tested on: NCI-H226 lung
[20] = tested on: HT29 colon
[21] = tested on: DU-145 prostate
[22] = tested on: SK-MEL-5 melanoma
[23] = tested on: NCI/ADR-RES ovarian
[24] = tested on: UO-31 renal
[25] = tested on: SF-268 CNS
[26] = tested on: A549 NSCLC
[27] = tested on: OVCAR-8 ovarian
[28] = tested on: SF-295 CNS
[29] = tested on: OVCAR-5 ovarian
[30] = tested on: SNB-75 CNS
[31] = tested on: COLO 205 colon
[32] = tested on: EKVX NSCLC
[33] = tested on: M14 melanoma
[34] = tested on: SK-MEL-28 melanoma
[35] = tested on: U251 CNS
[36] = tested on: HCT-15 colon
[37] = tested on: SF-539 CNS
[38] = tested on: HOP-92 NSCLC
[39] = tested on: CCRF-CEM leukemia
[40] = tested on: RPMI-8226 leukemia
[41] = tested on: UACC-257 melanoma
[42] = tested on: HCC-2998 colon
[43] = tested on: HL-60(TB) leukemia
[44] = tested on: SR leukemia
[45] = tested on: MOLT-4 leukemia
[46] = tested on: SK-OV-3 ovarian
[47] = tested on: LOX IMVI melanoma
[48] = tested on: 786-0 renal
[49] = tested on: K-562 leukemia
[50] = tested on: HS 578T breast
[51] = tested on: SK-MEL-2 melanoma
[52] = tested on: BT-549 breast
[53] = tested on: MCF7 breast
[54] = tested on: UACC-62 melanoma
[55] = tested on: T-47D breast
[56] = tested on: NCI-H522 lung
[57] = tested on: NCI-H460 lung
[58] = tested on: MALME-3M melanoma
[59] = tested on: HOP-62 NSCLC

SMILES: CC(=O)N1C(=O)CC2(N=C(C)CC2=O)c2ccccc21 (configuration not stated)
- TGI [1]: > 10 µM
- TGI [2]: > 10 µM
- TGI [3]: > 10 µM
- TGI [4]: > 10 µM
- TGI [5]: > 10 µM
- TGI [6]: > 10 µM
- TGI [7]: > 10 µM
- TGI [8]: > 10 µM
- TGI [9]: > 10 µM
- TGI [10]: > 10 µM
- TGI [11]: > 10 µM
- TGI [12]: > 10 µM
- TGI [13]: > 10 µM
- TGI [14]: > 10 µM
- TGI [15]: > 10 µM
- TGI [16]: > 10 µM
- TGI [17]: > 10 µM
- TGI [18]: > 10 µM
- TGI [19]: > 10 µM
- TGI [20]: > 10 µM
- TGI [21]: > 10 µM
- TGI [22]: > 10 µM
- TGI [23]: > 10 µM
- TGI [24]: > 10 µM
- TGI [25]: > 10 µM
- TGI [26]: > 10 µM
- TGI [27]: > 10 µM
- TGI [28]: > 10 µM
- TGI [29]: > 10 µM
- TGI [30]: > 10 µM
- TGI [31]: > 10 µM
- TGI [32]: > 10 µM
- TGI [33]: > 10 µM
- TGI [34]: > 10 µM
- TGI [35]: > 10 µM
- TGI [36]: > 10 µM
- TGI [37]: > 10 µM
- TGI [38]: > 10 µM

SMILES: CCOC(=O)C(Cl)(NC(=O)NC(Cl)(C(=O)OCC)C(F)(F)F)C(F)(F)F (configuration not stated)
- TGI [1]: > 100 µM
- TGI [3]: > 100 µM
- TGI [6]: > 100 µM
- TGI [7]: > 100 µM
- TGI [39]: > 100 µM
- TGI [9]: > 100 µM
- TGI [40]: > 100 µM
- TGI [41]: > 100 µM
- TGI [11]: > 100 µM
- TGI [12]: > 100 µM
- TGI [42]: > 100 µM
- TGI [43]: > 100 µM
- TGI [16]: > 100 µM
- TGI [17]: > 100 µM
- TGI [44]: > 100 µM
- TGI [45]: > 100 µM
- TGI [20]: > 100 µM
- TGI [46]: > 100 µM
- TGI [23]: > 100 µM
- TGI [24]: > 100 µM
- TGI [25]: > 100 µM
- TGI [47]: > 100 µM
- TGI [48]: > 100 µM
- TGI [29]: > 100 µM
- TGI [30]: > 100 µM
- TGI [49]: > 100 µM
- TGI [31]: > 100 µM
- TGI [34]: > 100 µM
- TGI [35]: > 100 µM
- TGI [50]: > 100 µM
- TGI [36]: > 100 µM
- TGI [37]: > 100 µM
- TGI [51]: > 100 µM

SMILES: CC(=O)N[C@H]1C=C[C@@H]2/C=C(C)/C=C/[C@@H](C)[C@H]([C@H](C)[C@H](O)[C@@H](C)NC(C)=O)OC(=O)/C=C/C=C(C)\C=C\[C@]2(C)C1
- GI50 [2]: 0.00805 µM
- TGI [2]: 44.6 µM
- GI50 [3]: 0.0212 µM and 0.00535 µM
- TGI [3]: 4.65 µM and > 45 µM
- GI50 [4]: 0.00333 µM and < 0.0045 µM
- TGI [4]: 0.0235 µM and < 0.0045 µM
- GI50 [5]: 0.0045 µM
- TGI [5]: 18 µM
- GI50 [6]: 0.0202 µM and 0.0045 µM
- TGI [6]: 4.65 µM and > 45 µM
- GI50 [7]: 0.00564 µM and 0.0045 µM
- TGI [7]: 4.65 µM and > 45 µM
- GI50 [52]: 0.023 µM and 0.0045 µM
- TGI [52]: 4.65 µM and > 45 µM
- GI50 [8]: 0.00823 µM
- TGI [8]: 4.65 µM
- GI50 [39]: 6.32 µM
- TGI [39]: > 45 µM
- GI50 [9]: 0.0045 µM
- TGI [9]: 0.0181 µM
- GI50 [40]: 0.0428 µM and 0.0045 µM
- TGI [40]: 4.65 µM and 13.1 µM
- TGI [41]: 4.65 µM and 16.5 µM
- GI50 [10]: 0.0246 µM and 0.0045 µM
- TGI [10]: 4.65 µM and > 45 µM
- GI50 [11]: 0.0103 µM and 0.0045 µM
- TGI [12]: 4.65 µM and > 45 µM
- GI50 [42]: 5.04 µM
- TGI [42]: > 45 µM
- GI50 [13]: 0.0178 µM and 0.0045 µM
- TGI [13]: 4.65 µM and > 45 µM
- GI50 [14]: 6.59 µM
- TGI [14]: > 45 µM
- TGI [43]: 4.65 µM and 20.6 µM
- GI50 [16]: 0.0186 µM and 0.0045 µM
- TGI [16]: 4.65 µM and > 45 µM
- GI50 [53]: 0.0336 µM and 0.0045 µM
- TGI [53]: 4.65 µM and > 45 µM
- GI50 [17]: 0.256 µM and 0.072 µM
- TGI [17]: 4.65 µM and > 45 µM
- GI50 [18]: 0.0215 µM and 0.00532 µM
- TGI [18]: 4.65 µM and > 45 µM
- GI50 [44]: 0.0184 µM and 0.0045 µM
- TGI [44]: 4.65 µM and 20.3 µM
- GI50 [45]: 11 µM
- TGI [45]: > 45 µM
- GI50 [54]: 0.0228 µM and 0.0315 µM
- TGI [54]: 4.65 µM and 13.3 µM
- GI50 [19]: 0.0157 µM and 0.0045 µM
- TGI [19]: 4.65 µM and 7.18 µM
- GI50 [20]: 0.00384 µM and 0.0045 µM
- TGI [20]: 4.65 µM and > 45 µM
- GI50 [21]: 0.0294 µM and 0.00897 µM
- TGI [21]: 4.65 µM and > 45 µM
- GI50 [22]: 0.00896 µM and 0.0045 µM
- TGI [22]: 0.0458 µM and 0.00824 µM
- GI50 [46]: 0.0117 µM and 0.0045 µM
- TGI [46]: 4.65 µM and > 45 µM
- GI50 [23]: 0.213 µM and 0.0397 µM
- TGI [23]: 4.65 µM and > 45 µM
- GI50 [24]: 0.00414 µM and 0.0045 µM
- TGI [24]: 4.65 µM and 10.6 µM
- GI50 [25]: 0.126 µM and 0.0322 µM
- TGI [25]: 4.65 µM and > 45 µM
- TGI [26]: 4.65 µM and > 45 µM
- TGI [27]: 4.65 µM and > 45 µM
- GI50 [47]: 0.00734 µM and < 0.0045 µM
- TGI [47]: 0.016 µM and < 0.0045 µM
- GI50 [28]: 0.00449 µM and 0.0045 µM
- GI50 [48]: 0.0242 µM and 0.0045 µM
- TGI [48]: 4.65 µM and > 45 µM
- GI50 [29]: 14.1 µM
- TGI [29]: > 45 µM
- GI50 [30]: 0.00243 µM and 0.0045 µM
- GI50 [49]: 0.0307 µM and 0.00538 µM
- TGI [49]: 4.65 µM and > 45 µM
- GI50 [55]: 0.0131 µM and 0.0045 µM
- TGI [55]: 4.65 µM and 5.18 µM
- GI50 [31]: 0.0173 µM and 0.0045 µM
- TGI [31]: 4.65 µM and 5.38 µM
- GI50 [56]: 0.0368 µM and 0.00931 µM
- TGI [56]: 4.65 µM and 8.99 µM
- TGI [32]: 4.65 µM and > 45 µM
- GI50 [33]: 0.00734 µM and 0.0045 µM
- GI50 [57]: 0.0045 µM
- TGI [57]: > 45 µM
- GI50 [34]: 0.0306 µM and 0.00647 µM
- TGI [34]: 4.65 µM and > 45 µM
- GI50 [35]: 0.00747 µM and 0.0045 µM
- TGI [35]: 4.65 µM and > 45 µM
- GI50 [50]: 0.0161 µM and 0.0045 µM
- TGI [50]: 4.65 µM and 3.28 µM
- GI50 [36]: 0.0361 µM and 0.00939 µM
- TGI [36]: 4.65 µM and > 45 µM
- GI50 [37]: 0.0107 µM and 0.0045 µM
- TGI [37]: 4.65 µM and 24.6 µM
- TGI [58]: 4.65 µM and 24.7 µM
- TGI [59]: 4.65 µM and > 45 µM
- GI50 [38]: 0.00954 µM and 0.0045 µM
- GI50 [51]: 5.11 µM
- TGI [51]: 17.9 µM
